biological target: T1, human TGR5 (h-TGR5) (Homo sapiens, UniProt Q8TDU6); test: TGR5/CRE-Luciferiase Assay (HEK 293 hTGR5/CRE-Luc cells); format: cell-based; conditions: h-TGR5 CRE-Luc EC50, Table 1; read-out: CRE-Luc (EC50)
T1 construct: expressed in transfected cells
T1 sequence (Q8TDU6 1-330): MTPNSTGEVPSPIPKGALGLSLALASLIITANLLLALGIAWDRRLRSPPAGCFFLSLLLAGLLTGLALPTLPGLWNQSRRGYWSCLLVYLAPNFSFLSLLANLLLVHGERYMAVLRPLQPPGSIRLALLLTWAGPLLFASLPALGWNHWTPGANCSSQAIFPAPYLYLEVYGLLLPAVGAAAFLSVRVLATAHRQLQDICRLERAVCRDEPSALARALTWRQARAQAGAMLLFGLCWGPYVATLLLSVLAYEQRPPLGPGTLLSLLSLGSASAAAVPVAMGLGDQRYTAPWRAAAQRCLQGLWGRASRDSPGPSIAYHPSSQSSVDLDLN
How it was run: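 HEK293 cells stably carrying hTGR5 and a CRE-luciferase reporter were exposed to serially diluted compounds (diluted in DMEM with 5% DMSO) for 6 h. Cells were then lysed in luciferase buffer, luminescence was read, and EC50 values were derived from dose-response curves.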

| EC50 [nM] | SMILES |
| --- | --- |
| 1000 to 10000 | CC(C)(c1ccc(Cl)c(Cl)c1)c1cnc(C2=CCN(S(C)(=O)=O)CC2)n1-c1ccc(F)cc1 [4-{5-[1-(3,4-dichlorophenyl)-1-methylethyl]-1-(4-fluorophenyl)-1H-imidazol-2-yl}-1-(methylsulfonyl)-1,2,3,6-tetrahydropyridine] |
| 1000 to 10000 | CC(C)(c1ccc(Cl)c(Cl)c1)c1cnc(C2CCN(S(C)(=O)=O)CC2)n1-c1ccc(F)cc1 [4-{5-[1-(3,4-dichlorophenyl)-1-methylethyl]-1-(4-fluorophenyl)-1H-imidazol-2-yl}-1-(methylsulfonyl)piperidine] |
| 1000 to 10000 | CC(C)(c1ccc(Cl)c(Cl)c1)c1cnc(C2CCN(C(=O)NN3CCCC3)CC2)n1-c1ccc(F)cc1 [4-{5-[1-(3,4-dichlorophenyl)-1-methylethyl]-1-(4-fluorophenyl)-1H-imidazol-2-yl}-N-pyrrolidin-1-ylpiperidine-1-carboxamide] |
| 100 to 1000 | CC(C)(c1ccc(Cl)c(Cl)c1)c1cnc(-c2ccc(F)cc2)n1-c1ccc(F)cc1 [5-[1-(3,4-dichlorophenyl)-1-methylethyl]-1,2-bis(4-fluorophenyl)-1H-imidazole] |
| 100 to 1000 | CC(C)(c1ccc(Cl)c(Cl)c1)c1cnc(S(=O)(=O)Cc2ccc(F)c(C(F)(F)F)c2)n1-c1ccc(F)cc1 [5-[1-(3,4-dichlorophenyl)-1-methylethyl]-1-(4-fluorophenyl)-2-({[4-fluoro-3-(trifluoromethyl)phenyl]methyl}sulfonyl)-1H-imidazole] |
| 1000 to 10000 | CC(C)(c1ccc(Cl)c(Cl)c1)c1cnc(S(=O)(=O)N[C@H](CO)c2ccccc2)n1-c1ccc(F)cc1 [5-[1-(3,4-dichlorophenyl)-1-methylethyl]-1-(4-fluorophenyl)-N-[(1S)-2-hydroxy-1-phenylethyl]-1H-imidazole-2-sulfonamide] |
| 100 to 1000 | CC(C)(c1ccc(Cl)c(Cl)c1)c1cnc(SCc2ccc(F)cc2S(C)(=O)=O)n1-c1ccc(F)cc1 [5-[1-(3,4-dichlorophenyl)-1-methylethyl]-2-({[4-fluoro-2-(methylsulfonyl)phenyl]methyl}thio)-1-(4-fluorophenyl)-1H-imidazole] |
| 1000 to 10000 | CC(C)(c1ccc(Cl)c(Cl)c1)c1cnc(S(=O)(=O)Cc2ccc(Cl)cc2Cl)n1-c1ccc(F)cc1 [5-[1-(3,4-dichlorophenyl)-1-methylethyl]-2-{[(2,4-dichlorophenyl)methyl]sulfonyl}-1-(4-fluorophenyl)-1H-imidazole] |
| 100 to 1000 | CC(C)(c1ccc(Cl)c(Cl)c1)c1cnc(S(=O)(=O)Cc2cc(Cl)ccc2Cl)n1-c1ccc(F)cc1 [5-[1-(3,4-dichlorophenyl)-1-methylethyl]-2-{[(2,5-dichlorophenyl)methyl]sulfonyl}-1-(4-fluorophenyl)-1H-imidazole] |
| 100 to 1000 | CC(C)(c1ccc(Cl)c(Cl)c1)c1cnc(S(=O)(=O)Cc2c(Cl)cccc2Cl)n1-c1ccc(F)cc1 [5-[1-(3,4-dichlorophenyl)-1-methylethyl]-2-{[(2,6-dichlorophenyl)methyl]sulfonyl}-1-(4-fluorophenyl)-1H-imidazole] |
| 1000 to 10000 | CC(C)(c1ccc(Cl)c(Cl)c1)c1cnc(S(=O)(=O)Cc2ccc(Cl)c(Cl)c2)n1-c1ccc(F)cc1 [5-[1-(3,4-dichlorophenyl)-1-methylethyl]-2-{[(3,4-dichlorophenyl)methyl]sulfonyl}-1-(4-fluorophenyl)-1H-imidazole] |
| 100 to 1000 | CC(C)(c1ccc(Cl)c(Cl)c1)c1cnc(S(=O)(=O)Cc2ccc(F)c(F)c2)n1-c1ccc(F)cc1 [5-[1-(3,4-dichlorophenyl)-1-methylethyl]-2-{[(3,4-difluorophenyl)methyl]sulfonyl}-1-(4-fluorophenyl)-1H-imidazole] |

Continued, compound first:

| SMILES | EC50 [nM] |
| --- | --- |
| CNS(=O)(=O)c1ccc(C(C)(C)c2cnc(SCc3ccc(F)cc3Cl)n2-c2ccc(F)cc2)cc1 [4-{1-[2-{[(2-chloro-4-fluorophenyl)methyl]thio}-1-(4-fluorophenyl)-1H-imidazol-5-yl]-1-methylethyl}-N-methylbenzenesulfonamide] | 100 to 1000 |
| CC(C)(c1ccc(O)c(O)c1)c1cnc(SCc2ccc(F)cc2Cl)n1-c1ccc(F)cc1 [4-{1-[2-{[(2-chloro-4-fluorophenyl)methyl]thio}-1-(4-fluorophenyl)-1H-imidazol-5-yl]-1-methylethyl}benzene-1,2-diol] | < 100 |
| CC(C)(c1ccc(Cl)c(OCCN2CCOCC2)c1)c1cnc(SCc2c(F)cccc2Cl)n1-c1ccc(F)cc1 [4-{2-[(2-chloro-5-{1-[2-{[(2-chloro-6-fluorophenyl)methyl]thio}-1-(4-fluorophenyl)-1H-imidazol-5-yl]-1-methylethyl}phenyl)oxy]ethyl}morpholine] | 100 to 1000 |
| COc1ccc(C(C)(C)c2cnc(C(=O)N3CCOCC3)n2-c2ccc(F)cc2)cc1OC [4-{[5-{1-[3,4-bis(methyloxy)phenyl]-1-methylethyl}-1-(4-fluorophenyl)-1H-imidazol-2-yl]carbonyl}morpholine] | 1000 to 10000 |
| CC(C)(c1ccc(Cl)c(Cl)c1)c1nc(CSc2ccc(F)cc2Cl)cn1-c1ccc(F)cc1 [4-{[(2-chloro-4-fluorophenyl)thio]methyl}-2-[1-(3,4-dichlorophenyl)-1-methylethyl]-1-(4-fluorophenyl)-1H-imidazole] | 1000 to 10000 |
| CC(C)(c1ccc(Cl)c(Cl)c1)c1cnc(SCc2ccc(F)cc2Cl)n1-c1ccc(F)c(C(N)=O)c1 [5-(2-{[(2-chloro-4-fluorophenyl)methyl]thio}-5-[1-(3,4-dichlorophenyl)-1-methylethyl]-1H-imidazol-1-yl)-2-fluorobenzamide] | 100 to 1000 |
| CC(C)(c1ccc(Cl)c(Cl)c1)c1cnc(SCc2ccc(F)cc2Cl)n1-c1ccc(F)c(C#N)c1 [5-(2-{[(2-chloro-4-fluorophenyl)methyl]thio}-5-[1-(3,4-dichlorophenyl)-1-methylethyl]-1H-imidazol-1-yl)-2-fluorobenzonitrile] | 100 to 1000 |
| COc1c(Cl)cc(C(C)(C)c2cnc(SCc3ccc(F)c(S(N)(=O)=O)c3)n2-c2ccc(F)cc2)cc1Cl [5-({[5-{1-[3,5-dichloro-4-(methyloxy)phenyl]-1-methylethyl}-1-(4-fluorophenyl)-1H-imidazol-2-yl]thio}methyl)-2-fluorobenzenesulfonamide] | < 100 |
| COc1ccc(C(C)(C)c2cnc(SCc3ccc(F)c(C(=O)O)c3)n2-c2ccc(F)cc2)cc1Cl [5-({[5-{1-[3-chloro-4-(methyloxy)phenyl]-1-methylethyl}-1-(4-fluorophenyl)-1H-imidazol-2-yl]thio}methyl)-2-fluorobenzoic acid] | 100 to 1000 |
| CC(C)(c1ccc2c(c1)OCO2)c1cnc(SCc2ccc(F)cc2Cl)n1-c1ccc(F)cc1 [5-[1-(1,3-benzodioxol-5-yl)-1-methylethyl]-2-{[(2-chloro-4-fluorophenyl)methyl]thio}-1-(4-fluorophenyl)-1H-imidazole] | 100 to 1000 |
| CC(C)(c1ccc2c(c1)OCO2)c1cnc(SCc2c(F)cccc2Cl)n1-c1ccc(F)cc1 [5-[1-(1,3-benzodioxol-5-yl)-1-methylethyl]-2-{[(2-chloro-6-fluorophenyl)methyl]thio}-1-(4-fluorophenyl)-1H-imidazole] | < 100 |
| CC(C)(c1ccc(Cl)c(Cl)c1)c1cnc(SCc2c(F)cc(F)cc2F)n1-c1ccc(F)cc1 [5-[1-(3,4-dichlorophenyl)-1-methylethyl]-1-(4-fluorophenyl)-2-{[(2,4,6-trifluorophenyl)methyl]thio}-1H-imidazole] | < 100 |
| CC(C)(c1ccc(Cl)c(Cl)c1)c1cnc(S(=O)(=O)NCc2ccc(C(F)(F)F)cc2F)n1-c1ccc(F)cc1 [5-[1-(3,4-dichlorophenyl)-1-methylethyl]-1-(4-fluorophenyl)-N-{[2-fluoro-4-(trifluoromethyl)phenyl]methyl}-1H-imidazole-2-sulfonamide] | 100 to 1000 |
| CC(Oc1ccc(Cl)c(Cl)c1)c1ncc(C(C)(C)c2ccc(Cl)c(Cl)c2)n1-c1ccc(F)cc1 (stereo not shown) [5-[1-(3,4-dichlorophenyl)-1-methylethyl]-2-{1-[(3,4-dichlorophenyl)oxy]ethyl}-1-(4-fluorophenyl)-1H-imidazole] | 1000 to 10000 |
| CC(C)(c1ccc(Cl)c(Cl)c1)c1cnc(SCc2c(Cl)cccc2Cl)n1-c1ccc(F)cc1 [5-[1-(3,4-dichlorophenyl)-1-methylethyl]-2-{[(2,6-dichlorophenyl)methyl]thio}-1-(4-fluorophenyl)-1H-imidazole] | 100 to 1000 |
| CC(C)(c1ccc(Cl)c(Cl)c1)c1cnc(CSc2ccc(Cl)c(Cl)c2)n1-c1ccc(F)cc1 [5-[1-(3,4-dichlorophenyl)-1-methylethyl]-2-{[(3,4-dichlorophenyl)thio]methyl}-1-(4-fluorophenyl)-1H-imidazole] | 100 to 1000 |
| CC(C)(c1ccc(Cl)c(F)c1)c1cnc(SCc2c(F)cccc2Cl)n1-c1ccc(F)cc1 [5-[1-(4-chloro-3-fluorophenyl)-1-methylethyl]-2-{[(2-chloro-6-fluorophenyl)methyl]thio}-1-(4-fluorophenyl)-1H-imidazole] | < 100 |
| COc1ccc(-c2cnc(SCc3ccc(F)cc3Cl)n2-c2ccc(F)cc2)cc1OC [5-[3,4-bis(methyloxy)phenyl]-2-{[(2-chloro-4-fluorophenyl)methyl]thio}-1-(4-fluorophenyl)-1H-imidazole] | 1000 to 10000 |
| COc1ccc(-c2cnc(SCc3c(F)cccc3Cl)n2-c2ccc(F)cc2)cc1OC [5-[3,4-bis(methyloxy)phenyl]-2-{[(2-chloro-6-fluorophenyl)methyl]thio}-1-(4-fluorophenyl)-1H-imidazole] | 1000 to 10000 |

From patent US8785488B2 (Exelixis Patent Company LLC, priority 2009, dated 2014)
